pIC50: −log10 of the molar value. Like-named read-outs stand apart in the source and are kept apart here. Square brackets hold non-standard residues; d marks the D form. Peptide text beside a SMILES is read from it. * marks the point of attachment. X1 = Cc1ccc(Nc2ncc3c(n2)N(C)C(=O)N(c2cc(C(=O)*)ccc2C)C3)cn1; Pip = O=C(O)[C@@H]1CCCCN1; Ac3c = NC1(C(=O)O)CC1; Aib = CC(C)(N)C(=O)O
Key:
[1] = biological target: LCK (Homo sapiens, UniProt P06239); experiment: IC50 inhibitory activity against LCK kinase; type: biochemical
Sequence of LCK (P06239 whole entry): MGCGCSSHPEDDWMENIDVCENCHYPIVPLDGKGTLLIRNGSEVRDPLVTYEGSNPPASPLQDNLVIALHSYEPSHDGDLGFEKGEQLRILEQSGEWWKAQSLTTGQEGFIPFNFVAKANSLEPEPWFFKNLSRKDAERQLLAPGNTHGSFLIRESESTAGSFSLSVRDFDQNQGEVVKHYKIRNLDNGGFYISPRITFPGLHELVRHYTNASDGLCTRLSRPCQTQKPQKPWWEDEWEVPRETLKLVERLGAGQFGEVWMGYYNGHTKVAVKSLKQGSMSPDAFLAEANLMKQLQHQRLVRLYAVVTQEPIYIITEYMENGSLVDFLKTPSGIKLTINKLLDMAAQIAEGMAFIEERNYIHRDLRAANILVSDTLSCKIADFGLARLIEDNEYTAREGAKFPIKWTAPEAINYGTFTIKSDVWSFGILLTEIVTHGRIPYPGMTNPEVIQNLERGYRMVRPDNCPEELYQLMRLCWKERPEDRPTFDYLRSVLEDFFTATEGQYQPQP
Procedure: (§1) IC50 values were calculated by measuring the inhibitory activity against LCK, c-Src, p38a/MAPK14, ABL1, DDR1 and FGR kinases of the compounds of the present invention.

[2] = biological target: c-Src (Homo sapiens, UniProt P12931); experiment: IC50 inhibitory activity against c-Src kinase; type: biochemical
Sequence of c-Src (P12931 whole entry): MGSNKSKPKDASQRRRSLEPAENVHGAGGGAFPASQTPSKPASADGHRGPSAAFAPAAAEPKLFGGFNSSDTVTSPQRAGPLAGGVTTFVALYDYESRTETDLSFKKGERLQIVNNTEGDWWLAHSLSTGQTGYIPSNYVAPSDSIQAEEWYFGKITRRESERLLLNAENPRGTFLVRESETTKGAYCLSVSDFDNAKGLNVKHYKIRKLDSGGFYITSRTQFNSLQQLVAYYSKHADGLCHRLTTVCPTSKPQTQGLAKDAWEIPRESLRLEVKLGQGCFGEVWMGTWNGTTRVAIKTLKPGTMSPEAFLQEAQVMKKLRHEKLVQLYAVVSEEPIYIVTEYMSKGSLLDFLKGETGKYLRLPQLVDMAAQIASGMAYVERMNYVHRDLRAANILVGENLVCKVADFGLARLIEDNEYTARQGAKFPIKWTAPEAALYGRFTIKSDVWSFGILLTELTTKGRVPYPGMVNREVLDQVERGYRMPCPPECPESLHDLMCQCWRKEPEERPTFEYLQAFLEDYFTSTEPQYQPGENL
Procedure: as §1

SMILES	pIC50 ([1]; read-out: LCK IC50)	pIC50 ([2]; read-out: c-Src IC50)	pIC50 [1]	pIC50 [2]
Cc1ccc(Nc2ncc3c(n2)N(C)C(=O)N(c2cc(C(=O)N[C@H](C(=O)N4CCC[C@H]4C(=O)NC(C)(C)C(=O)NCC(=O)N(C)C)C(C)C)ccc2C)C3)cn1 [Example 14, (S)—N-(1-((2-(dimethylamino)-2-oxoethyl)amino)-2-methyl-1-oxopropan-2-yl)-1-((4-methyl-3-(1-methyl-7-((6-methylpyridin-3-yl)amino)-2-oxo-1,4-dihydropyrimido[4,5-d]pyrimidin-3(2H)-yl)benzoyl)-L-valyl)pyrrolidine-2-carboxamide] (X1-VP[Aib]G-NMe2)			6.70 to 9.00	< 6.22
CC1=N[C@@H](CC(C)C)C(=O)N(C)c2cc(C(=O)Nc3ccc(C)c(N4Cc5cnc(Nc6ccc(C)nc6)nc5N(C)C4=O)c3)ccc21 [Example 40, (S)-3-isobutyl-1,5-dimethyl-N-(4-methyl-3-(1-methyl-7-((6-methylpyridin-3-yl)amino)-2-oxo-1,4-dihydropyrimido[4,5-d]pyrimidin-3(2H)-yl)phenyl)-2-oxo-2,3-dihydro-1H-benzo[e][1,4]diazepine-8-carboxamide]	6.70 to 9.00	6.70 to 9.00		
Cc1ccc(Nc2ncc3c(n2)N(C)C(=O)N(c2cc(C(=O)N[C@H](C(=O)N4CCC[C@H]4C(=O)NC4(C(=O)N[C@@H](CC(C)C)C(=O)N(C)C)CC4)C(C)C)ccc2C)C3)cn1 [Example 4, (S)—N-(1-(((S)-1-(dimethylamino)-4-methyl-1-oxopentan-2-yl)carbamoyl)cyclopropyl)-1-((4-methyl-3-(1-methyl-7-((6-methylpyridin-3-yl)amino)-2-oxo-1,4-dihydropyrimido[4,5-d]pyrimidin-3(2H)-yl)benzoyl)-L-valyl)pyrrolidine-2-carboxamide] (X1-VP[Ac3c]L-NMe2)			6.70 to 9.00	6.40 to 6.70
Cc1ccc(Nc2ncc3c(n2)N(C)C(=O)N(c2cc(C(=O)N[C@H](C(=O)N4CCCC[C@H]4C(=O)NC(C)(C)C(=O)N[C@@H](CC(C)C)C(=O)N(C)C)C(C)C)ccc2C)C3)cn1 [Example 13, (S)—N-(1-(((S)-1-(dimethylamino)-4-methyl-1-oxopentan-2-yl)amino)-2-methyl-1-oxopropan-2-yl)-1-((4-methyl-3-(1-methyl-7-((6-methylpyridin-3-yl)amino)-2-oxo-1,4-dihydropyrimido[4,5-d]pyrimidin-3(2H)-yl)benzoyl)-L-valyl)piperidine-2-carboxamide] (X1-V[Pip][Aib]L-NMe2)	6.70 to 9.00	6.22 to 6.40		
Cc1ccc(Nc2ncc3c(n2)N(C)C(=O)N(c2cc(NC(=O)c4ccc5c(c4)N(CC(C)C)C(=O)[C@H](CC(C)C)N=C5c4ccccc4)ccc2C)C3)cn1 [Example 39, (S)-1,3-diisobutyl-N-(4-methyl-3-(1-methyl-7-((6-methylpyridin-3-yl)amino)-2-oxo-1,4-dihydropyrimido[4,5-d]pyrimidin-3(2H)-yl)phenyl)-2-oxo-5-phenyl-2,3-dihydro-1H-benzo[e][1,4]diazepine-8-carboxamide]	6.70 to 9.00	6.22 to 6.40		

Now from value to molecule, other results behind:

pIC50 ([1]; read-out: LCK IC50)	pIC50 ([2]; read-out: c-Src IC50)	SMILES	pIC50 [1]	pIC50 [2]
6.70 to 9.00	6.70 to 9.00	Cc1ccc(Nc2ncc3c(n2)N(C)C(=O)N(c2cc(NC(=O)c4ccc5c(c4)N(CC(=O)NCc4ccccc4)C(=O)[C@H](CC(C)C)N=C5c4ccccc4)ccc2C)C3)cn1 [Example 43, (S)-1-(2-(benzylamino)-2-oxoethyl)-3-isobutyl-N-(4-methyl-3-(1-methyl-7-((6-methylpyridin-3-yl)amino)-2-oxo-1,4-dihydropyrimido[4,5-d]pyrimidin-3(2H)-yl)phenyl)-2-oxo-5-phenyl-2,3-dihydro-1H-benzo[e][1,4]diazepine-8-carboxamide]		
6.70 to 9.00	6.70 to 9.00	Cc1ccc(Nc2ncc3c(n2)N(C)C(=O)N(c2cc(NC(=O)c4ccc5c(c4)NC(=O)[C@H](Cc4ccccc4C)N=C5c4ccccc4)ccc2C)C3)cn1 [Example 29, (S)—N-(4-methyl-3-(1-methyl-7-((6-methylpyridin-3-yl)amino)-2-oxo-1,4-dihydropyrimido[4,5-d]pyrimidin-3(2H)-yl)phenyl)-3-(2-methylbenzyl)-2-oxo-5-phenyl-2,3-dihydro-1H-benzo[e][1,4]diazepine-8-carboxamide]		

From patent US11530221B2, “Pyrimido[4,5-d]pyrimidin-2-one derivatives as protein kinase inhibitors” (KOREA INSTITUTE OF SCIENCE AND TECHNOLOGY, priority 2019, dated 2022)
